Test results from ChEMBL document CHEMBL5038626 (Eur J Med Chem, 2022).
≈ marks a conversion by molar mass, not a printed value. Calls of active or inactive are those of the source. The calls are words filed in the database; no cut-off is given here.

Legend:
Topoisomerase IV = Topoisomerase IV (Staphylococcus aureus, UniProt P0C1S7+P0C1U9); test: Inhibition of Staphylococcus aureus topoisomerase 4 assessed as reduction in decatenation using kDNA as substrate incubated for 30 mins by fluorimetric assay; type: protein-complex assay
DNA gyrase = DNA gyrase (Escherichia coli, UniProt P0AES4+P0AES6); test: Inhibition of Escherichia coli DNA gyrase supercoiling activity using pBR322 as substrate incubated for 30 mins by fluorimetric assay; type: protein-complex assay
Staphylococcus aureus = test: Antibacterial activity against Staphylococcus aureus Newman assessed as inhibition of bacterial growth incubated for 24 hrs by broth microdilution method; type: functional
Escherichia coli = test: Antibacterial activity against Escherichia coli ATCC 8739 assessed as inhibition of bacterial growth incubated for 24 hrs by broth microdilution method; type: functional
[1] = Toxicity in Swiss albino mouse assessed as clonic convulsions at 0.6 mmol/Kg, iv administered as single dose observed for 6 hrs; type: organism-based; conditions: in vivo
Mus musculus = test: Effect on GABA protein expression in Swiss albino mouse assessed as decrease in GABA protein expression at 0.6 mmol/Kg, iv administered as single dose by western blot analysis; type: functional, organism-based

Topoisomerase IV, sequence (P0C1U9 whole entry): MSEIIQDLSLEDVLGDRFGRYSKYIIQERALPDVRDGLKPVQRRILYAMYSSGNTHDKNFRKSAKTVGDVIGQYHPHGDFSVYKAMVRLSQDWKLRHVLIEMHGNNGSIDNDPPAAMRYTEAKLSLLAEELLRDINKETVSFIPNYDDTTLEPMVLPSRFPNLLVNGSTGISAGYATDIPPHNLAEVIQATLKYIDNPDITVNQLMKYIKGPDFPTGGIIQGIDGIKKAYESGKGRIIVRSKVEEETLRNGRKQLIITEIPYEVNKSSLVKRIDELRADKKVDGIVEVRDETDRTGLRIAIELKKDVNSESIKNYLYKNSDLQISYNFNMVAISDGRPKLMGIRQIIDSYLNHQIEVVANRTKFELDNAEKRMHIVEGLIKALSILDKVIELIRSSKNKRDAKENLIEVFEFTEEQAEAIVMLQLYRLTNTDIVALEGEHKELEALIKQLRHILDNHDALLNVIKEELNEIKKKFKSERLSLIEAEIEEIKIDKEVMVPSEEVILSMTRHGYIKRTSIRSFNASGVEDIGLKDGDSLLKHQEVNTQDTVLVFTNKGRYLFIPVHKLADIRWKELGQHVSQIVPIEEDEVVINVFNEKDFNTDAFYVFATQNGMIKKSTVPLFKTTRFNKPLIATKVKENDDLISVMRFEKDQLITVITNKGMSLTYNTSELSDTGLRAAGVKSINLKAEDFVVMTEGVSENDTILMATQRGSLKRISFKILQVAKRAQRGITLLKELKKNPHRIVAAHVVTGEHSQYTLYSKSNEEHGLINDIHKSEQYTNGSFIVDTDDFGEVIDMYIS
Topoisomerase IV, sequence (P0C1S7 whole entry): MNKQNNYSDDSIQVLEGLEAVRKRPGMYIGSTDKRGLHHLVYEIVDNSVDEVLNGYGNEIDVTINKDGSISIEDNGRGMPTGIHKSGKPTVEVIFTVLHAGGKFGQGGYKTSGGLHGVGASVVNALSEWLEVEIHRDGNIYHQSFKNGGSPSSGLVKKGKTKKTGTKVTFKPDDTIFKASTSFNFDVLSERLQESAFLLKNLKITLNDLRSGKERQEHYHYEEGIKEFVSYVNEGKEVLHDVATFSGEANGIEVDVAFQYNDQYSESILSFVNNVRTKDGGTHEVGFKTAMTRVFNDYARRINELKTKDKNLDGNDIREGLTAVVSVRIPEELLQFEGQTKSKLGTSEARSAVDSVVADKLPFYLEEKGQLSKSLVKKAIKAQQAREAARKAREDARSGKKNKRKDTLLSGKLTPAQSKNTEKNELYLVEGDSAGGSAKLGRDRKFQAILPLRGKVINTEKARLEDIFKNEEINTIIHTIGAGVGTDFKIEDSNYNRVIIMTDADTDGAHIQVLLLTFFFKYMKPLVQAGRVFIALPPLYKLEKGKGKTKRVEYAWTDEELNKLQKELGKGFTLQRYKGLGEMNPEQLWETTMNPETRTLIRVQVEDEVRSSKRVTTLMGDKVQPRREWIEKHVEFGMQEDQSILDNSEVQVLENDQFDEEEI

| Structure (SMILES) | IC50 (Topoisomerase IV) [nM] | IC50 (DNA gyrase) [nM] | MIC (Staphylococcus aureus) [µM] | MIC (Escherichia coli) [µM] | Activity [1] | Activity (Mus musculus) |
| --- | --- | --- | --- | --- | --- | --- |
| CC(C(=O)Nc1ccc(S(N)(=O)=O)cc1)N1CCN(c2cc3c(cc2F)c(=O)c(C(=O)O)cn3C2CC2)CC1 (stereo unspecified) | 6660 | 5650 | 1.5 (≈ 0.834 µg/mL) | 0.897 (≈ 0.5 µg/mL) | – | – |
| NS(=O)(=O)c1ccc(/N=N/N2CCN(c3cc4c(cc3F)c(=O)c(C(=O)O)cn4C3CC3)CC2)cc1 | 2430 | 3560 | 0.324 (≈ 0.167 µg/mL) | 0.025 (≈ 0.0129 µg/mL) | – | – |
| NS(=O)(=O)c1ccc(NC(=O)CCN2CCN(c3cc4c(cc3F)c(=O)c(C(=O)O)cn4C3CC3)CC2)cc1 | 600 | 1100 | 2.99 (≈ 1.67 µg/mL) | 0.897 (≈ 0.5 µg/mL) | – | – |
| O=C(CCN1CCN(c2cc3c(cc2F)c(=O)c(C(=O)O)cn3C2CC2)CC1)Nc1ccc(S(=O)(=O)Nc2cncc(Cl)n2)cc1 | 440 | 1240 | 287 (≈ 192 µg/mL) | 287 (≈ 192 µg/mL) | – | – |
| Cc1cc(NS(=O)(=O)c2ccc(NC(=O)CN3CCN(c4cc5c(cc4F)c(=O)c(C(=O)O)cn5C4CC4)CC3)cc2)no1 | 4660 | 1330 | 3.2 (≈ 2 µg/mL) | 7.47 (≈ 4.67 µg/mL) | – | – |
| O=C(O)c1cn(C2CC2)c2cc(N3CCN(/N=N/c4ccc(S(=O)(=O)Nc5cnc6ccccc6n5)cc4)CC3)c(F)cc2c1=O | 12800 | 5860 | 5.19 (≈ 3.33 µg/mL) | 0.389 (≈ 0.25 µg/mL) | – | – |
| O=C(O)c1cn(C2CC2)c2cc(N3CCNCC3)c(F)cc2c1=O [CIPROFLOXACIN] | – | – | 1.36 (≈ 0.45 µg/mL) | 0.255 (≈ 0.0845 µg/mL) | – | – |
| O=C(CCN1CCN(c2cc3c(cc2F)c(=O)c(C(=O)O)cn3C2CC2)CC1)Nc1ccc(S(=O)(=O)Nc2cnc3ccccc3n2)cc1 | 230 | 430 | 0.972 (≈ 0.667 µg/mL) | 0.608 (≈ 0.417 µg/mL) | Non-Toxic | Active |
| O=C(O)c1cn(C2CC2)c2cc(N3CCN(/N=N/c4ccc(S(=O)(=O)Nc5cncc(Cl)n5)cc4)CC3)c(F)cc2c1=O | 12800 | 13000 | 1.59 (≈ 1 µg/mL) | 1.33 (≈ 0.833 µg/mL) | – | – |
| Cc1cc(NS(=O)(=O)c2ccc(NC(=O)CCN3CCN(c4cc5c(cc4F)c(=O)c(C(=O)O)cn5C4CC4)CC3)cc2)no1 | 3910 | 6310 | 1.04 (≈ 0.667 µg/mL) | 5.22 (≈ 3.33 µg/mL) | – | – |
| CC(C(=O)Nc1ccc(S(=O)(=O)Nc2cnc3ccccc3n2)cc1)N1CCN(c2cc3c(cc2F)c(=O)c(C(=O)O)cn3C2CC2)CC1 (stereo unspecified) | 1210 | 1440 | 0.729 (≈ 0.5 µg/mL) | 1.94 (≈ 1.33 µg/mL) | – | – |
| NS(=O)(=O)c1ccc(NC(=O)CN2CCN(c3cc4c(cc3F)c(=O)c(C(=O)O)cn4C3CC3)CC2)cc1 | 3770 | 1320 | 7.36 (≈ 4 µg/mL) | 12.3 (≈ 6.67 µg/mL) | – | – |
| O=C(O)c1cn(C2CC2)c2cc(N3CCN(/N=N/c4ccc(S(=O)(=O)Nc5ncccn5)cc4)CC3)c(F)cc2c1=O | 9500 | 12800 | 0.422 (≈ 0.25 µg/mL) | 0.013 (≈ 0.0077 µg/mL) | – | – |
| O=C(CN1CCN(c2cc3c(cc2F)c(=O)c(C(=O)O)cn3C2CC2)CC1)Nc1ccc(S(=O)(=O)Nc2cnc3ccccc3n2)cc1 | 350 | 550 | 1.99 (≈ 1.33 µg/mL) | 0.744 (≈ 0.5 µg/mL) | Non-Toxic | Active |
| O=C(CCN1CCN(c2cc3c(cc2F)c(=O)c(C(=O)O)cn3C2CC2)CC1)Nc1ccc(S(=O)(=O)Nc2ncccn2)cc1 | 1800 | 1990 | 1.57 (≈ 1 µg/mL) | 2.62 (≈ 1.67 µg/mL) | – | – |
| Cc1cc(NS(=O)(=O)c2ccc(NC(=O)C(C)N3CCN(c4cc5c(cc4F)c(=O)c(C(=O)O)cn5C4CC4)CC3)cc2)no1 (stereo unspecified) | 390 | 1270 | 0.783 (≈ 0.5 µg/mL) | 1.04 (≈ 0.667 µg/mL) | Non-Toxic | Active |
| O=C(CN1CCN(c2cc3c(cc2F)c(=O)c(C(=O)O)cn3C2CC2)CC1)Nc1ccc(S(=O)(=O)Nc2cncc(Cl)n2)cc1 | 2290 | 900 | 1.52 (≈ 1 µg/mL) | 2.54 (≈ 1.67 µg/mL) | – | – |
| Cc1cc(NS(=O)(=O)c2ccc(/N=N/N3CCN(c4cc5c(cc4F)c(=O)c(C(=O)O)cn5C4CC4)CC3)cc2)no1 | 2580 | 1950 | 0.839 (≈ 0.5 µg/mL) | 1.12 (≈ 0.666 µg/mL) | – | – |
| O=C(CN1CCN(c2cc3c(cc2F)c(=O)c(C(=O)O)cn3C2CC2)CC1)Nc1ccc(S(=O)(=O)Nc2ncccn2)cc1 | 2080 | 2870 | 1.61 (≈ 1 µg/mL) | 1.34 (≈ 0.834 µg/mL) | – | – |
| NC(N)=NS(=O)(=O)c1ccc(/N=N/N2CCN(c3cc4c(cc3F)c(=O)c(C(=O)O)cn4C3CC3)CC2)cc1 | 640 | 770 | 1.8 (≈ 1 µg/mL) | 3 (≈ 1.67 µg/mL) | Non-Toxic | Active |
